From patent US20260062422A1 (Halda Therapeutics OpCo, Inc., priority 2022, published 2026)

What was measured:
[1] = tested on: T-Rex 293 cell line SC3 cells having increased expression of androgen receptor protein due to exposure to doxycycline; assay: Cellular growth inhibition, T-Rex 293 SC3 cells with doxycycline (androgen receptor induced), CellTiter-Glo; type: cell-based; details: T-Rex 293 SC3 cells with 10 ng/mL doxycycline (increased androgen receptor expression)
Method in brief: (§1)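 With DMSO (0.5%) vehicle as negative control, compounds treated SC3 cells for 72 h in medium containing charcoal-dextran FBS ± doxycycline. This T-Rex 293 clone expresses transfected wild-type AR on induction. Readout: CellTiter-Glo 2.0; GI50 by nonlinear regression.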

[2] = tested on: T-Rex 293 cell line SC3 cells lacking increased expression of androgen receptor protein; assay: Cellular growth inhibition, T-Rex 293 SC3 cells without doxycycline, CellTiter-Glo; type: cell-based; details: T-Rex 293 SC3 cells not exposed to doxycycline, CellTiter-Glo 2.0
Method in brief: as §1

VCaP cells = assay: Cellular growth inhibition assay for VCaP cells, CellTiter-Glo; type: cell-based, human; details: 72 hours treatment, CellTiter-Glo 2.0
Method in brief: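 GI50 values come from four-parameter curve fits of luminescence data normalized to a zero baseline. Compound, in medium with 0.5% DMSO, was added one day after plating and left for 72 h before CellTiter-Glo 2.0 addition.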

T47D cells = assay: Cellular growth inhibition assay for T47D cells, CellTiter-Glo; type: cell-based, human; details: 72 hours treatment, CellTiter-Glo 2.0 cell viability
Method in brief: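 Growth inhibition as GI50, fitted with four parameters to CellTiter-Glo luminescence after 72 h of compound exposure (0.5% DMSO). Cells were T47D, grown in insulin-supplemented (0.2 units/mL) DMEM with 10% FBS and treated one day post-seeding.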

CC[C@@H]1N=C(c2ccc(N3CC(C4CCN(c5ncc(C(=O)N[C@H]6C(C)(C)[C@H](Oc7ccc(C#N)c(Cl)c7)C6(C)C)cn5)CC4)C3)cc2)c2c(sc(C)c2C)-n2c(C)nnc21 [Compound I-595]
GI50 ([1]; 72 h): < 500 nM
GI50 ([2]; 72 h): > 3000 nM
GI50 (VCaP cells; Homo sapiens, VCaP, 72 h): < 500 nM
GI50 (T47D cells; Homo sapiens, T47D, 72 h): > 3000 nM

CC[C@@H]1N=C(c2ccc(CC3CC4(CCN(c5ncc(C(=O)N[C@H]6C(C)(C)[C@H](Oc7ccc(C#N)c(Cl)c7)C6(C)C)cn5)CC4)C3)cc2)c2c(sc(C)c2C)-n2c(C)nnc21 [Compound I-596]
GI50 ([1]; 72 h): < 500 nM
GI50 ([2]; 72 h): > 3000 nM
GI50 (VCaP cells; Homo sapiens, VCaP, 72 h): < 500 nM
GI50 (T47D cells; Homo sapiens, T47D, 72 h): > 3000 nM

CC[C@@H]1N=C(c2ccc(CC3CC4(CCN(c5cnc(C(=O)N[C@H]6C(C)(C)[C@H](Oc7ccc(C#N)c(Cl)c7)C6(C)C)cn5)CC4)C3)cc2)c2c(sc(C)c2C)-n2c(C)nnc21 [Compound I-597]
GI50 ([1]; 72 h): > 3000 nM
GI50 ([2]; 72 h): > 3000 nM
GI50 (VCaP cells; Homo sapiens, VCaP, 72 h): < 500 nM
GI50 (T47D cells; Homo sapiens, T47D, 72 h): < 500 nM

CC[C@@H]1N=C(c2ccc(CC3CC4(CCN(c5ccc(C(=O)N[C@H]6C(C)(C)[C@H](Oc7ccc(C#N)c(Cl)c7)C6(C)C)cn5)CC4)C3)cc2)c2c(sc(C)c2C)-n2c(C)nnc21 [Compound I-598]
GI50 ([1]; 72 h): < 500 nM
GI50 ([2]; 72 h): > 3000 nM
GI50 (VCaP cells; Homo sapiens, VCaP, 72 h): < 500 nM
GI50 (T47D cells; Homo sapiens, T47D, 72 h): < 500 nM

COCC[C@@H]1N=C(c2ccc(CC3CC4(CCN(c5ccc(C(=O)N[C@H]6C(C)(C)[C@H](Oc7ccc(C#N)c(Cl)c7)C6(C)C)cn5)CC4)C3)cc2)c2c(sc(C)c2C)-n2c(C)nnc21 [Compound I-599]
GI50 ([1]; 72 h): < 500 nM
GI50 ([2]; 72 h): > 3000 nM
GI50 (VCaP cells; Homo sapiens, VCaP, 72 h): < 500 nM
GI50 (T47D cells; Homo sapiens, T47D, 72 h): < 500 nM

Cc1sc2c(c1C)C(c1ccc(OC3CC4(CCN(c5ncc(C(=O)N[C@H]6C(C)(C)[C@H](Oc7ccc(C#N)c(Cl)c7)C6(C)C)cn5)CC4)C3)cc1)=NC(C(F)(F)F)c1nnc(C)n1-2 (stereo partly drawn) [Compound I-600]
GI50 ([1]; 72 h): > 3000 nM
GI50 ([2]; 72 h): > 3000 nM
GI50 (VCaP cells): > 3000 nM
GI50 (T47D cells; Homo sapiens, T47D, 72 h): > 3000 nM

Cc1sc2c(c1C)C(c1ccc(OC3CC4(CCN(c5ncc(C(=O)N[C@H]6C(C)(C)[C@H](Oc7ccc(C#N)c(Cl)c7)C6(C)C)cn5)CC4)C3)cc1)=NC(C(F)(F)F)c1nnc(C)n1-2 (stereo partly drawn) [Compound I-601]
GI50 ([1]; 72 hours): > 3000 nM
GI50 ([2]; 72 hours): > 3000 nM
GI50 (VCaP cells): < 500 nM
GI50 (T47D cells): > 3000 nM

Cc1sc2c(c1C)C(c1ccc(Nc3ccc(N4CCN(c5ncc(C(=O)N[C@H]6C(C)(C)[C@H](Oc7ccc(C#N)c(Cl)c7)C6(C)C)cn5)CC4)c(C(F)(F)F)c3)cc1)=N[C@@H](C)c1nnc(C)n1-2 [Compound I-602]
GI50 ([1]; 72 h): > 3000 nM
GI50 ([2]; 72 h): > 3000 nM
GI50 (VCaP cells; Homo sapiens, VCaP, 72 h): > 3000 nM
GI50 (T47D cells; Homo sapiens, T47D, 72 h): > 3000 nM

Cc1sc2c(c1C)C(c1ccc(CCC(=O)N3CC4(C3)CN(c3ncc(C(=O)N[C@H]5C(C)(C)[C@H](Oc6ccc(C#N)c(Cl)c6)C5(C)C)cn3)C4)cc1)=N[C@@H](C)c1nnc(C)n1-2 [Compound I-603]
GI50 ([1]; 72 h): < 500 nM
GI50 ([2]; 72 h): > 3000 nM
GI50 (VCaP cells; Homo sapiens, VCaP, 72 h): 500 to 1500 nM
GI50 (T47D cells; Homo sapiens, T47D, 72 h): 500 to 1500 nM

Cc1sc2c(c1C)C(c1ccc(N3CC(C4CCN(c5ncc(C(=O)N[C@H]6C(C)(C)[C@H](Oc7ccc(C#N)c(Cl)c7)C6(C)C)cn5)C4)C3)cc1)=NC1(CC1)c1nnc(C)n1-2 (stereo partly drawn) [Compound I-604]
GI50 ([1]; 72 h): < 500 nM
GI50 ([2]; 72 h): < 500 nM
GI50 (VCaP cells; Homo sapiens, VCaP, 72 h): < 500 nM
GI50 (T47D cells; Homo sapiens, T47D, 72 h): 500 to 1500 nM

Cc1sc2c(c1C)C(c1ccc(N3CC(C4CCN(c5ncc(C(=O)N[C@H]6C(C)(C)[C@H](Oc7ccc(C#N)c(Cl)c7)C6(C)C)cn5)C4)C3)cc1)=NC1(CC1)c1nnc(C)n1-2 (stereo partly drawn) [Compound I-605]
GI50 ([1]; 72 hours): < 500 nM
GI50 ([2]; 72 hours): < 500 nM
GI50 (VCaP cells): < 500 nM
GI50 (T47D cells): 500 to 1500 nM

CC[C@@H]1N=C(c2ccc(OC3CC4(C3)CC3(CCN(c5ncc(C(=O)N[C@H]6C(C)(C)[C@H](Oc7ccc(C#N)c(Cl)c7)C6(C)C)cn5)CC3)C4)cc2)c2c(sc(C)c2C)-n2c(C)nnc21 [Compound I-606]
GI50 ([1]; 72 h): < 500 nM
GI50 ([2]; 72 h): > 3000 nM
GI50 (VCaP cells; Homo sapiens, VCaP, 72 h): < 500 nM
GI50 (T47D cells; Homo sapiens, T47D, 72 h): > 3000 nM

CC[C@@H]1N=C(c2ccc(N3CC(CC4CN(c5cnc(C(=O)N[C@H]6C(C)(C)[C@H](Oc7ccc(C#N)c(Cl)c7)C6(C)C)cn5)C4)C3)cc2)c2c(sc(C)c2C)-n2c(C)nnc21 [Compound I-607]
GI50 ([1]; 72 h): < 500 nM
GI50 ([2]; 72 h): > 3000 nM
GI50 (VCaP cells; Homo sapiens, VCaP, 72 h): > 3000 nM
GI50 (T47D cells; Homo sapiens, T47D, 72 h): < 500 nM

COCC[C@@H]1N=C(c2ccc(N3CC(CC4CCN(c5ncc(C(=O)N[C@H]6C(C)(C)[C@H](Oc7ccc(C#N)c(Cl)c7)C6(C)C)cn5)CC4)C3)cc2)c2c(sc(C)c2C)-n2c(C)nnc21 [Compound I-608]
GI50 ([1]; 72 h): < 500 nM
GI50 ([2]; 72 h): > 3000 nM
GI50 (VCaP cells; Homo sapiens, VCaP, 72 h): < 500 nM
GI50 (T47D cells; Homo sapiens, T47D, 72 h): 500 to 1500 nM

COCC[C@@H]1N=C(c2ccc(N3CC(CC4CCN(c5cnc(C(=O)N[C@H]6C(C)(C)[C@H](Oc7ccc(C#N)c(Cl)c7)C6(C)C)cn5)CC4)C3)cc2)c2c(sc(C)c2C)-n2c(C)nnc21 [Compound I-609]
GI50 ([1]; 72 h): < 500 nM
GI50 ([2]; 72 h): < 500 nM
GI50 (VCaP cells; Homo sapiens, VCaP, 72 h): 500 to 1500 nM
GI50 (T47D cells; Homo sapiens, T47D, 72 h): < 500 nM

COCC[C@@H]1N=C(c2ccc(N3CC(C4CCN(c5ncc(C(=O)N[C@H]6C(C)(C)[C@H](Oc7ccc(C#N)c(Cl)c7)C6(C)C)cn5)CC4)C3)cc2)c2c(sc(C)c2C)-n2c(C)nnc21 [Compound I-610]
GI50 ([1]; 72 h): < 500 nM
GI50 ([2]; 72 h): > 3000 nM
GI50 (VCaP cells; Homo sapiens, VCaP, 72 h): < 500 nM
GI50 (T47D cells; Homo sapiens, T47D, 72 h): 1500 to 3000 nM

COCC[C@@H]1N=C(c2ccc(N3CC(CC4CN(c5cnc(C(=O)N[C@H]6C(C)(C)[C@H](Oc7ccc(C#N)c(Cl)c7)C6(C)C)cn5)C4)C3)cc2)c2c(sc(C)c2C)-n2c(C)nnc21 [Compound I-611]
GI50 ([1]; 72 h): < 500 nM
GI50 ([2]; 72 h): < 500 nM
GI50 (VCaP cells; Homo sapiens, VCaP, 72 h): < 500 nM
GI50 (T47D cells; Homo sapiens, T47D, 72 h): 1500 to 3000 nM

CC[C@@H]1N=C(c2ccc(CC3CCC4(C3)CN(c3ncc(C(=O)N[C@H]5C(C)(C)[C@H](Oc6ccc(C#N)c(Cl)c6)C5(C)C)cn3)CCO4)cc2)c2c(sc(C)c2C)-n2c(C)nnc21 (stereo partly drawn) [Compound I-612]
GI50 ([1]; 72 h): < 500 nM
GI50 ([2]; 72 hours): 500 to 1500 nM
GI50 (VCaP cells; Homo sapiens, VCaP, 72 h): 500 to 1500 nM
GI50 (T47D cells): 1500 to 3000 nM

CC[C@@H]1N=C(c2ccc(CC3CCC4(C3)CN(c3ncc(C(=O)N[C@H]5C(C)(C)[C@H](Oc6ccc(C#N)c(Cl)c6)C5(C)C)cn3)CCO4)cc2)c2c(sc(C)c2C)-n2c(C)nnc21 (stereo partly drawn) [Compound I-613]
GI50 ([1]; 72 hours): < 500 nM
GI50 ([2]; 72 hours): > 3000 nM
GI50 (VCaP cells): < 500 nM
GI50 (T47D cells): 500 to 1500 nM

CC[C@@H]1N=C(c2ccc(CC3CCC4(C3)CN(c3ncc(C(=O)N[C@H]5C(C)(C)[C@H](Oc6ccc(C#N)c(Cl)c6)C5(C)C)cn3)CCO4)cc2)c2c(sc(C)c2C)-n2c(C)nnc21 (stereo partly drawn) [Compound I-614]
GI50 ([1]; 72 hours): < 500 nM
GI50 ([2]; 72 hours): > 3000 nM
GI50 (VCaP cells): < 500 nM
GI50 (T47D cells): < 500 nM

CC[C@@H]1N=C(c2ccc(CC3CCC4(C3)CN(c3ncc(C(=O)N[C@H]5C(C)(C)[C@H](Oc6ccc(C#N)c(Cl)c6)C5(C)C)cn3)CCO4)cc2)c2c(sc(C)c2C)-n2c(C)nnc21 (stereo partly drawn) [Compound I-615]
GI50 ([1]; 72 hours): < 500 nM
GI50 ([2]; 72 hours): < 500 nM
GI50 (VCaP cells): < 500 nM
GI50 (T47D cells): > 3000 nM

Cc1sc2c(c1C)C(c1ccc(N3CC(C4CCN(c5ncc(C(=O)N[C@H]6C(C)(C)[C@H](Oc7ccc(C#N)c(Cl)c7)C6(C)C)cn5)C4)C3)cc1)=N[C@@H](C)c1nnc(C)n1-2 (stereo partly drawn) [Compound I-616]
GI50 ([1]; 72 h): < 500 nM
GI50 ([2]; 72 h): < 500 nM
GI50 (VCaP cells; Homo sapiens, VCaP, 72 h): < 500 nM
GI50 (T47D cells; Homo sapiens, T47D, 72 h): < 500 nM

Cc1sc2c(c1C)C(c1ccc(N3CC(C4CCN(c5ncc(C(=O)N[C@H]6C(C)(C)[C@H](Oc7ccc(C#N)c(Cl)c7)C6(C)C)cn5)C4)C3)cc1)=N[C@@H](C)c1nnc(C)n1-2 (stereo partly drawn) [Compound I-617]
GI50 ([1]; 72 hours): < 500 nM
GI50 ([2]; 72 hours): < 500 nM
GI50 (VCaP cells): < 500 nM
GI50 (T47D cells): < 500 nM

Cc1sc2c(c1C)C(c1ccc(N3CC(CC4CCN(c5ncc(C(=O)N(C)[C@H]6C(C)(C)[C@H](Oc7ccc(C#N)c(Cl)c7)C6(C)C)cn5)CC4)C3)cc1)=N[C@@H](C)c1nnc(C)n1-2 [Compound I-618]
GI50 ([1]; 72 h): < 500 nM
GI50 ([2]; 72 h): > 3000 nM
GI50 (VCaP cells; Homo sapiens, VCaP, 72 h): 1500 to 3000 nM
GI50 (T47D cells; Homo sapiens, T47D, 72 h): < 500 nM
